Measured values reported in patent publication US10213415B2, “Compounds as opioid receptor modulators” (JANSSEN PHARMACEUTICA NV, priority 2004, dated 2019).

Legend:
delta opioid receptor = target: T1, delta opioid receptor (Rattus norvegicus, UniProt P33533); experiment: Rat Brain Delta Opioid Receptor Binding Assay-Version 1a ([3H]naltrindole); settings: rat forebrain membranes, 0.1 nM [3H]naltrindole; margin of error 10-20%; read-out: r Ki δ Ver. 1a
T1 construct: from tissue; host or cells: forebrain of male Wistar rats
Protocol: Male, Wistar rats (150-250 g, VAF, Charles River, Kingston, N.Y.) were killed by cervical dislocation, and their brains removed and placed immediately in ice-cold Tris HCl buffer (50 mM, pH 7.4). The forebrains were separated from the remainder of the brain by a coronal transection, beginning dorsally at the colliculi and passing ventrally through the midbrain-pontine junction. After dissection, the forebrains were homogenized in Tris buffer in a Teflon®-glass homogenizer. The homogenate was diluted to a concentration of 1 g of forebrain tissue per 80 mL Tris and centrifuged at 39,000×g for 10 min. The pellet was resuspended in the same volume of Tris buffer containing 5 mM MgCl2 with several brief pulses from a Polytron homogenizer. This particulate preparation was used for the delta opioid binding assay. Following incubation with 0.1 nM of the delta selective ligand [^3H]naltrindole at 25° C. for 2.5 h in a 96-well plate with total 1 mL, the plate contents were filtered through Wallac filtermat B sheets on a Tomtec 96-well harvester. The filters were rinsed three times with 2 mL of 10 mM HEPES (pH 7.4), and dried in a microwave oven. To each sample area, Betaplate Scint scintillation fluid (LKB) was added and the resulting radioactivity quantified on a LKB (Wallac) 1205 BetaPlate liquid scintillation counter. Kd and Ki values were calculated using the GraphPad PRISM data analysis program.

mu opioid receptor = target: T2, mu opioid receptor (Rattus norvegicus, UniProt P33535); experiment: Rat Brain Mu Opioid Receptor Binding Assay (and Version 2a, [3H]DAMGO); settings: rat forebrain membranes, margin of error 10-20%, read-out: r Ki μ
T2 construct: from tissue; host or cells: forebrain of male Wistar rats
Outline: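 Displacement of the mu-selective radioligand [3H]DAMGO (0.8 nM) measured by filtration and scintillation counting after 2.5 h at 25° C. Membranes came from male Wistar rat forebrain in Tris-HCl (50 mM, pH 7.4) plus 5 mM MgCl2; Ki derived from concentration–response, % inhibition for single doses.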

human mu opioid receptor = target: T3, human mu opioid receptor (Homo sapiens, UniProt P35372); experiment: Human Mu Opioid Receptor Binding Assay (CHO membranes, 3H-Damgo); settings: read-out: hKi μ
T3 construct: purchased Perkin Elmer RBHOMM400UA; host or cells: Chinese Hamster Ovary cells (recombinant expression)
Outline: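 Radioligand displacement of ³H-Damgo (diluted to 3.6 nM pre-mix) from recombinant human mu receptor in CHO membranes, 2 h, room temperature, 50 mM Tris pH 7.5 with 5 mM MgCl2. Bound label read by filtration and scintillation counting; 1 μM unlabelled Damgo defines nonspecific binding.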

T1 sequence (P33533 whole entry): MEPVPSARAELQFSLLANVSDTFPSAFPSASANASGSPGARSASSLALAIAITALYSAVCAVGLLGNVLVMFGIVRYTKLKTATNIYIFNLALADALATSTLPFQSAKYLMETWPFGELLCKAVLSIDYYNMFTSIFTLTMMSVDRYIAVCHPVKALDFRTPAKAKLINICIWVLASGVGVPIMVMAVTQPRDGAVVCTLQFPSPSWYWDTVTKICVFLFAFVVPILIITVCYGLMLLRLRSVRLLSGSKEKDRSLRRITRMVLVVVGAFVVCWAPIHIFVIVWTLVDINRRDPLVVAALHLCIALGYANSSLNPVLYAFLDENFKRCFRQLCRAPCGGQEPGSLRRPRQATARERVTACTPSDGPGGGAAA
T2 sequence (P33535 whole entry): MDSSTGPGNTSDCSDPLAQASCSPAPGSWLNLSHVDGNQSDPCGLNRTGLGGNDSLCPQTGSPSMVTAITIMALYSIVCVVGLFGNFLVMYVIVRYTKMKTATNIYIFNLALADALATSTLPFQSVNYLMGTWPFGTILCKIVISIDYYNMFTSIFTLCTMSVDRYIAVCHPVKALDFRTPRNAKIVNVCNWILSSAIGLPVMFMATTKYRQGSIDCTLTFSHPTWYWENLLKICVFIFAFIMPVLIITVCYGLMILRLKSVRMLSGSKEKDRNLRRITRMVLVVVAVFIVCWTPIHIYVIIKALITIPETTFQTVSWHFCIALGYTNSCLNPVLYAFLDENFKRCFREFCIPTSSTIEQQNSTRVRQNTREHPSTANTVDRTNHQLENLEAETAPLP
T3 sequence (P35372 whole entry): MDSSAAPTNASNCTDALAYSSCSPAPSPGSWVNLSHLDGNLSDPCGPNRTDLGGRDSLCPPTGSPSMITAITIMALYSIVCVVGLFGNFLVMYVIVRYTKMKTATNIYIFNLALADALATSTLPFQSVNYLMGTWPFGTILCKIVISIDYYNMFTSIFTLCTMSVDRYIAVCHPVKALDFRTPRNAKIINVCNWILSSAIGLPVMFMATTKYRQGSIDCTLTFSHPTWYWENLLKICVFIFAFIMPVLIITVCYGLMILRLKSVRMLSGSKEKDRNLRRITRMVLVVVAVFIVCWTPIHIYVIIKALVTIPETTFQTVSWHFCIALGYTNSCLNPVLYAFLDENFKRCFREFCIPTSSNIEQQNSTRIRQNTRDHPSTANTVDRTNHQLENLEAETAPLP

## COc1ccc(CN(C(=O)[C@@H](N)Cc2c(C)cc(O)cc2C)[C@@H](C)c2nc(-c3ccccc3)c[nH]2)cc1C(=O)Nc1ccc(C(=O)O)cc1 [Cpd 308]
Delta opioid receptor
  Ki: 0.48 nM
Mu opioid receptor
  Ki: 1.2 nM

## C[C@@H](c1nc(-c2ccccc2)c[nH]1)N(Cc1ccc(C(=O)O)o1)C(=O)[C@@H](N)Cc1ccc(C(N)=O)cc1 [Cpd 304]
Delta opioid receptor
  Ki: 119 nM
Mu opioid receptor
  Ki: 161 nM
Human mu opioid receptor
  Ki: 41 nM

## COc1ccc(CN(C(=O)[C@@H](N)Cc2c(C)cc(O)cc2C)[C@@H](C)c2nc(-c3ccccc3)c[nH]2)cc1-c1nnn[nH]1 [Cpd 307]
Delta opioid receptor
  Ki: 0.07 nM
Mu opioid receptor
  Ki: 0.4 nM

## COc1ccc(CN(C(=O)[C@@H](N)Cc2c(C)cc(O)cc2C)[C@@H](C)c2nc(-c3ccccc3)c[nH]2)cc1C(=O)Nc1cccc(C(=O)O)c1 [Cpd 306]
Delta opioid receptor
  Ki: 0.18 nM
Mu opioid receptor
  Ki: 0.9 nM

## COc1ccc(CN(C(=O)[C@@H](N)Cc2c(C)cc(O)cc2C)[C@@H](C)c2nc(-c3ccccc3)c[nH]2)cc1C(=O)Nc1ccccc1 [Cpd 305]
Delta opioid receptor
  Ki: 1.24 nM
Mu opioid receptor
  Ki: 0.2 nM
